In patent publication US5521293A (Lever Brothers Company, Division of Conopco, Inc., priority 1995, dated 1996):

Assays:
Type in all cases: physicochemical
[1] = Surface tension at the water/air interface; settings: 60° C.
Experimental: An important characteristic feature that surfactants have is the tendency for them to absorb at the water/air interface in an oriented manner, thereby altering the interfacial free energy of that surface. The surface free energy per unit area or surface tension (γ), is a measure of this work and may be considered as the minimum amount of work required to bring sufficient surfactant molecules to the surface.
The surface tension (γ) value of C8 /C10 oxypropyl D-gluconamide was determined and is set forth below: […]

[2] = Efficiency in surface tension reduction (pC20)
Description: Since surface tension reduction depends on the replacement of water molecules at the interface by surfactant molecules, the efficiency of a surfactant in reducing interfacial tension should reflect the concentration of surfactant at the interface relative to that in bulk liquid phase. A suitable measure of efficiency with which a surfactant performs this function can be described as pC20. This is defined as the negative logarithm of the bulk phase surfactant concentration necessary to reduce the surface tension of water by 20 dyn/cm and is given as:
In general, pC20 values are usually close to the minimum concentration needed to saturate the interface with surfactant molecules.

[3] = Critical micelle concentration (Wilhelmy plate method); settings: 60° C.
Experimental: The critical micelle concentration (CMC) is defined as the concentration at which a surfactant forms micelles in aqueous solution. Micellization is the preferred interfacial phenomena, since certain surfactant benefits such as detergency (the solubilization of soils), foaming, wetting or emulsification depend on the formation of these aggregates in solution.
The CMC value of C8 /C10 oxypropyl D-gluconamide was determined by plotting surface tension as a function of log(concentration) and extrapolating linear points to obtain an intersection point. The concentration at this point was taken as the CMC. The technique used was the Wilhelmy plate method and the instrument used was a Lauda Auto-Tensiometer. While wishing not to be bound to theory, it is believed that surfactants with low CMC values form micelles more readily at lower concentrations than those with high CMC values.
The critical micelle concentration (CMC) value of C8 /C10 oxypropyl D-gluconamide (molecular weight=375.02 g/mole, 65.9% C8, 34.1% C10) was determined and is set forth below: […]

[4] = Effectiveness of adsorption at the interface (surface excess concentration at surface saturation); settings: for surface excess concentration at surface saturation (Γmax): 60° C. (T=333.15K)
Description: The surface excess concentration at surface saturation (Γmax) is defined as a measure of the effectiveness of surfactant adsorption at the water/air interface and represents the maximum value to which adsorption can be obtained. Effectiveness of adsorption is related to the interfacial area occupied by the surfactant molecule. The smaller the effective cross-sectional area of a surfactant at the interface, the greater its effectiveness of adsorption. The effectiveness of adsorption is an important factor in determining surfactant properties such as detergency, foaming, wetting or emulsification. While not wishing to be bound by theory, it is believed that surfactants that absorb effectively at the interface tend have tightly packed coherent interfacial films and often provide better surfactant benefits than those with loosely packed noncoherent films. The effectiveness of adsorption of C8 /C10 oxypropyl D-gluconarnide was determined using the Gibbs equation given as:
Γmax =-1/2.303RT(∂γ/∂log[Conc])T
(∂γ/∂log[Conc)T =-24.574971 ergs/cm^2 (which is equivalent to the
slope of a plot of γ versus log[Conc]) R=8.3 14×10^7 ergs/mol K (Gas Constant)
The surface excess concentration at surface saturation (Γmax) of various surfactants were determined and are set forth below: […]

[5] = Effectiveness in reducing surface tension (surface pressure at the CMC); settings: 60° C.
Description: Effectiveness of a surfactant in reducing surface tension is defined as the maximum reduction in surface tension that can be obtained regardless of the bulk phase surfactant concentration.
As mentioned before, surface tension reduction depends on the replacement of water molecules at the interface by surfactant molecules, therefore the effectiveness of a surfactant in reducing interfacial surface tension should reflect the saturated concentration of surfactant at the interface relative to that in bulk liquid phase. During this process the surface tension of water steadily decreases as bulk phase surfactant concentration increases. This will continue until the concentration reaches the critical micelle concentration (CMC), above which the surface tension remains nearly unchanged and the interface is saturated with surfactant. The surface tension at the CMC is therefore very close to the minimum interfacial tension or maximum surface pressure that the system can achieve. The surface pressure at this point, cmc, is a suitable measure of the effectiveness of a surfactant in reducing surface tension and is given as:
cmc =20+2.3 nRT(Γmax) log[CMC/C20 ]
n=1 which represents the number of ions whose surface concentration changes with the change in liquid phase surfactant concentration.
R=8.314×107 ergs/mol K (Gas Constant)
Γmax =-1/2·303RT(∂γ/∂log [Conc])T=3.85×10^-10 mole/cm^2
CMC/C20 =is the ratio of the critical micelle concentration to the bulk phase surfactant concentration necessary to reduce the surface tension of water by 20 dyn/cm.
The effectiveness of various surfactants in reducing surface tension ( cmc) were determined and are set forth below: […]

[6] = Area per molecule at the interface; settings: 60° C.
Description: The area per molecule of a surfactant at the water/air interface provides information on the degree of packing and the orientation of the adsorbed surfactant molecule. While not wishing to be bound by theory, it is believed that surfactants that have small area per molecule values tend to pack more closely at the interface than those with large area per molecule values. From the surface excess concentration at surface saturation (Γmax), the area per molecule (am) of C8 /C10 oxypropyl D-gluconamide was determined and is given by:
am =1×10^16 /Nav Γmax
Γmax =-1/2·303RT(∂γ/∂log[Conc])T
NAV =6.0221×10^23 per gram mole (Avogadro's Number)
The area per molecule (am) of several surfactants were-determined and are set forth below: […]

[7] = Micellar shape and structure (packing parameter)
Description: A theory of micellar structure, based upon the geometry of various micelle shapes and the space occupied by the surfactant has been disclosed by J. N. Israelachvili, D. J. Mitchell and B. W. Ninham in the J. Chem. Soc. Faraday Trans. 2, 1525, 72, (1976) which is given as the packing parameter (p).
VT =V(CH3) +(nc -1)V(CH2) and represents the volume occupied by the hydrophobic groups in the micellar core at a given temperature.
1c =1.50+1.26 nc Å and represents the length of the hydrophobic group in the core.
am =area per molecule or the cross-sectional area occupied by the hydrophilic group at the interface.
nc =total number of carbons in the alkyl chain.
Values obtained from the packing parameter (p) represent the following structures:
The packing parameter (p) of C8 /C10 oxypropyl D-Gluconamide was determined as follows: […]

[8] = Krafft point of aqueous dispersion of aldonamide; settings: 0.1% in water by weight
Experimental: The temperature at and above which surfactants begin to form micelles instead of precipitates is referred to as the Krafft point (Tk) and at this temperature the solubility of a surfactant becomes equal to its CMC (numerical value at which micelles are formed).
The Krafft point was measured by preparing 650 ml of a 0.1% or 1.0% dispersion of aldonamide in water by weight. If the surfactant was soluble at room temperature, the solution was slowly cooled to 0° C. […] (less than zero). If it precipitated out of solution, the temperature at which precipitation occurs was taken as the Krafft point.
If the surfactant was insoluble at :room temperature, the dispersion was slowly heated until the solution became homogeneous. It was then slowly cooled until precipitation occurred. The temperature at which the surfactant precipitates out of solution upon cooling was taken as the Krafft point.

C8 /C10 oxypropyl D-gluconamide [Q]
surface tension reduction (in words) [1]: significant reduction in water surface tension
pC20 (in words) [2]: high pC20 value
CMC / micelle formation (in words) [3]: forms micelles at a surprising low critical micelle concentration
surface excess concentration / cross sectional area (in words) [4]: small cross sectional area
surface excess concentration at surface saturation (Γmax) ([4]; listed as C8 /C10 Oxypropyl D-Gluconamide): 3.85 × 10^-10 mole/cm^2
surface excess concentration at surface saturation (Γmax) ([4]; listed as C8 /C10 oxypropyl D-gluconamide): 3.85×10^-10 mole/cm^2
surface pressure at the CMC (cmc) [5]: 38.5 dyn/cm
area per molecule (am) [6]: 43.1 Å^2
VT, volume occupied by the hydrophobic groups in the micellar core ([7]; T=333.15° K.): 379.7 Å^3
la, length of the hydrophobic group in the core ([7]; one oxygen atom taken as one methylene group): 17.5 Å
Krafft Point (0.1%) [8]: 48 °C
